According to patent US20230382949A1 (HEPTARES THERAPEUTICS LIMITED, priority 2020, published 2023):
Where two headings read alike, the source gives them in different places. Starred links: 1 amine or outer side, 2 acyl side, 3 side chain; linkers in the order of their positions; H or OH if unused. Non-standard residues stand in square brackets, D forms with d. Residues, ends and D or L forms follow the SMILES beside them. *: point of attachment. Ala(piperidin-4-yl) = O=C([C@H](CC1CCN([*:3])CC1)N[*:1])[*:2]; Malonyl(2,2-Me2,histaminyl) = CC(C)(C(=O)NCCc1cnc[nH]1)C(=O)*; Ala(1-imidazolyl) = N[C@@H](Cn1ccnc1)C(=O)O; dBip = N[C@H](Cc1ccc(-c2ccccc2)cc1)C(=O)O; Oic = O=C(O)[C@@H]1C[C@@H]2CCCC[C@@H]2N1; Phe(4-Br) = N[C@@H](Cc1ccc(Br)cc1)C(=O)O; d2Nal = N[C@H](Cc1ccc2ccccc2c1)C(=O)O; X5 = CC(C)(C(=O)NCc1c[nH]cn1)C(=O)*; hArg = N=C(N)NCCCC[C@H](N)C(=O)O; 3Pal = N[C@@H](Cc1cccnc1)C(=O)O; dCha = N[C@H](CC1CCCCC1)C(=O)O; Pip = O=C(O)[C@@H]1CCCCN1; Aib = CC(C)(N)C(=O)O; Bn = c1ccc(C*)cc1

What was measured:
human Apelin receptor [1] = molecular target: T1, human Apelin receptor (Homo sapiens, UniProt P35414); experiment: cAMP accumulation assay (HTRF), functional agonism of human Apelin receptors; format: cell-based; details: for Emax: CHO
T1 sequence (P35414 1-380): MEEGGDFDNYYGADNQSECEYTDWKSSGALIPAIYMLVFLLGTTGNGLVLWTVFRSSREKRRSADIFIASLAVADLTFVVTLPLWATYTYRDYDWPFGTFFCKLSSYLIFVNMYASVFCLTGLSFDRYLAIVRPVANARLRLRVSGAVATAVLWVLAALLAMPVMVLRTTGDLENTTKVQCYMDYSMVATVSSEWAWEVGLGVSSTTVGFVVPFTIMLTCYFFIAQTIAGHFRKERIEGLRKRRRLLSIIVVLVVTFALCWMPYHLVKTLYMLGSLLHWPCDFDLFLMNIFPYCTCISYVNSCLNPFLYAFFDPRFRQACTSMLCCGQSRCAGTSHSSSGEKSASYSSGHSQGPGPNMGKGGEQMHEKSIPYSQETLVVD
From the text: cAMP functional assay. cAMP production was quantified using the Homogeneous Time-Resolved Fluorescence (HTRF) cAMP dynamic-2 assay (Cisbio, France).

human Apelin receptor [2] = molecular target: T2, human Apelin receptor (Homo sapiens, UniProt P35414); experiment: β-arrestin accumulation assay, functional agonism of human Apelin receptors; format: cell-based
T2 construct: host or cells: CHO-K1 cells
Protocol: β-arrestin assay. […] After 16 h incubation at 37° C. media was removed and cells were incubated at 37° C. for 90 min in serum free media containing increasing concentrations of test agonist. The assay reaction was stopped by adding detection reagent (DiscoveRx) and incubation for 60 min in the dark. Levels of receptor activation were then measured on a PheraStar fluorescence plate reader (BMG LabTech) and EC50 values were determined using Graphpad Prism.
T2 sequence (P32121 whole entry partner, one chain of several): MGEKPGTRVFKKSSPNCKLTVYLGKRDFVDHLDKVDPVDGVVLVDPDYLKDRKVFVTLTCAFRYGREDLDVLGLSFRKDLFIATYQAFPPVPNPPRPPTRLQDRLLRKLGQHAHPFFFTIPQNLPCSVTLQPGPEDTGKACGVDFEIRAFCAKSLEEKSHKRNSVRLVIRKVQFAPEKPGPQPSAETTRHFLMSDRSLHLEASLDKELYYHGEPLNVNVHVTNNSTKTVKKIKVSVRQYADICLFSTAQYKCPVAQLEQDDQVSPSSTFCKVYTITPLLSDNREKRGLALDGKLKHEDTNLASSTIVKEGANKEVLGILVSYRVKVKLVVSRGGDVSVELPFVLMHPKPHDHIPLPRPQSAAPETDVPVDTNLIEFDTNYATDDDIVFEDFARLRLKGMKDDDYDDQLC

[3] = Human Apelin agonist cAMP assay, CHO cells stably expressing the human Apelin receptor, 3 uM forskolin
[4] = pEC50, Human Apelin agonist cAMP assay, CHO cells stably expressing the human Apelin receptor, 3 uM forskolin

Row | Structure (SMILES) | Emax (human Apelin receptor [1]; [3]) | EC50 (human Apelin receptor [1]; [4]) | EC50 (human Apelin receptor [2]) | Emax (human Apelin receptor [1]; read-out: Emax) | EC50 (human Apelin receptor [1]; read-out: pEC50 (converted))
1 | CC(C)C[C@H](NC(=O)[C@@H](CCCNC(=N)N)NC(=O)[C@@H]1CCCN1C(=O)[C@H](CCCCNC(=N)N)NC(=O)[C@H](CCC(N)=O)NC(=O)[C@@H](CCCNC(=N)N)NC(=O)C(C)(C)C(=O)NCCc1c[nH]cn1)C(=O)NC(C)(C)C(=O)N[C@@H](Cc1c[nH]cn1)C(=O)N[C@@H](CC1CCNCC1)C(=O)NCC(=O)N1[C@H](C(=O)N[C@@H](Cc2ccc(Br)cc2)C(=O)N2CCC[C@H]2C(=O)N[C@H](Cc2ccc(OCc3ccccc3)cc2)C(=O)O)C[C@@H]2CCCC[C@@H]21 [Example 22] ({Malonyl(2,2-Me2,histaminyl)}-[dR]Q[hArg]P[dR]L[Aib]H[Ala(piperidin-4-yl)]G[Oic][Phe(4-Br)]P[dY](Bn)-OH) | 98.1% | 7.94 nM | > 10000 nM | – | –
2 | CC(C)C[C@H](NC(=O)[C@@H](CCCNC(=N)N)NC(=O)[C@@H]1CCCN1C(=O)[C@H](CCCCNC(=N)N)NC(=O)[C@H](CCC(N)=O)NC(=O)[C@@H](CCCNC(=N)N)NC(=O)C(C)(C)C(=O)NCCc1c[nH]cn1)C(=O)NC(C)(C)C(=O)N[C@@H](Cc1c[nH]cn1)C(=O)N[C@@H](CC1CCNCC1)C(=O)NCC(=O)N1[C@H](C(=O)N[C@@H](Cc2ccc(Br)cc2)C(=O)N2CCC[C@H]2C(=O)N[C@H](Cc2ccc3ccccc3c2)C(=O)O)C[C@@H]2CCCC[C@@H]21 [Example 23] ({Malonyl(2,2-Me2,histaminyl)}-[dR]Q[hArg]P[dR]L[Aib]H[Ala(piperidin-4-yl)]G[Oic][Phe(4-Br)]P[d2Nal]-OH) | – | – | > 10000 nM | 43.4% | 25.1 nM
3 | CC(C)C[C@H](NC(=O)[C@@H](CCCNC(=N)N)NC(=O)[C@@H]1CCCN1C(=O)[C@H](CCCCNC(=N)N)NC(=O)[C@H](CCC(N)=O)NC(=O)[C@@H](CCCNC(=N)N)NC(=O)C(C)(C)C(=O)NCCc1c[nH]cn1)C(=O)NC(C)(C)C(=O)N[C@@H](Cc1c[nH]cn1)C(=O)N[C@@H](CC1CCNCC1)C(=O)NCC(=O)N1[C@H](C(=O)N[C@@H](Cc2ccc(Br)cc2)C(=O)N2CCC[C@H]2C(=O)N[C@H](CC2CCCCC2)C(=O)O)C[C@@H]2CCCC[C@@H]21 [Example 24] ({Malonyl(2,2-Me2,histaminyl)}-[dR]Q[hArg]P[dR]L[Aib]H[Ala(piperidin-4-yl)]G[Oic][Phe(4-Br)]P[dCha]-OH) | – | – | > 10000 nM | 87.9% | 31.6 nM
4 | CC(C)C[C@H](NC(=O)[C@H](CCCNC(=N)N)NC(=O)[C@@H]1CCCN1C(=O)[C@@H](CCCNC(=N)N)NC(=O)[C@H](CCC(N)=O)NC(=O)[C@@H](CCCNC(=N)N)NC(=O)C(C)(C)C(=O)NCCc1c[nH]cn1)C(=O)NC(C)(C)C(=O)N[C@@H](Cc1c[nH]cn1)C(=O)N[C@@H](CC1CCNCC1)C(=O)NCC(=O)N1[C@H](C(=O)N[C@@H](Cc2ccc(Br)cc2)C(=O)N2CCC[C@H]2C(=O)N[C@H](Cc2ccc(-c3ccccc3)cc2)C(=O)O)C[C@@H]2CCCC[C@@H]21 [Example 25] ({Malonyl(2,2-Me2,histaminyl)}-[dR]Q[dR]PRL[Aib]H[Ala(piperidin-4-yl)]G[Oic][Phe(4-Br)]P[dBip]-OH) | 92.7% | 15.8 nM | > 10000 nM | – | –
5 | CC(C)C[C@H](NC(=O)[C@@H](CCCNC(=N)N)NC(=O)[C@@H]1CCCN1C(=O)[C@H](CCCCNC(=N)N)NC(=O)[C@H](CCC(N)=O)NC(=O)[C@@H](CCCNC(=N)N)NC(=O)C(C)(C)C(=O)NCc1c[nH]cn1)C(=O)NC(C)(C)C(=O)N[C@@H](Cc1c[nH]cn1)C(=O)N[C@@H](CC1CCNCC1)C(=O)NCC(=O)N1[C@H](C(=O)N[C@@H](Cc2ccc(Br)cc2)C(=O)N2CCC[C@H]2C(=O)N[C@H](Cc2ccc(-c3ccccc3)cc2)C(=O)O)C[C@@H]2CCCC[C@@H]21 [Example 27] (X5-[dR]Q[hArg]P[dR]L[Aib]H[Ala(piperidin-4-yl)]G[Oic][Phe(4-Br)]P[dBip]-OH) | – | – | > 10000 nM | 66.1% | 6.31 nM
6 | CC(C)C[C@H](NC(=O)[C@@H](CCCNC(=N)N)NC(=O)[C@@H]1CCCN1C(=O)[C@H](CCCCNC(=N)N)NC(=O)[C@H](CCC(N)=O)NC(=O)[C@@H](CCCNC(=N)N)NC(=O)C(C)(C)C(=O)NCCc1cnc[nH]1)C(=O)NC(C)(C)C(=O)N[C@@H](Cn1ccnc1)C(=O)N[C@@H](CC1CCNCC1)C(=O)NCC(=O)N1[C@H](C(=O)N[C@@H](Cc2ccc(Br)cc2)C(=O)N2CCC[C@H]2C(=O)N[C@H](Cc2ccc(-c3ccccc3)cc2)C(=O)O)C[C@@H]2CCCC[C@@H]21 [Example 28] ({Malonyl(2,2-Me2,histaminyl)}-[dR]Q[hArg]P[dR]L[Aib][Ala(1-imidazolyl)][Ala(piperidin-4-yl)]G[Oic][Phe(4-Br)]P[dBip]-OH) | 27.4% | 15.8 nM | > 10000 nM | – | –
7 | CC(C)C[C@H](NC(=O)[C@@H](CCCNC(=N)N)NC(=O)[C@@H]1CCCCN1C(=O)[C@H](CCCCNC(=N)N)NC(=O)[C@H](CCC(N)=O)NC(=O)[C@@H](CCCNC(=N)N)NC(=O)C(C)(C)C(=O)NCCc1cnc[nH]1)C(=O)NC(C)(C)C(=O)N[C@@H](Cc1c[nH]cn1)C(=O)N[C@@H](CC1CCNCC1)C(=O)N[C@@H](C)C(=O)N1[C@H](C(=O)N[C@@H](Cc2ccc(Br)cc2)C(=O)N2CCC[C@H]2C(=O)N[C@H](Cc2ccc(-c3ccccc3)cc2)C(=O)O)C[C@@H]2CCCC[C@@H]21 [Example 29] ({Malonyl(2,2-Me2,histaminyl)}-[dR]Q[hArg][Pip][dR]L[Aib]H[Ala(piperidin-4-yl)]A[Oic][Phe(4-Br)]P[dBip]-OH) | 69.7% | 2.51 nM | > 10000 nM | – | –
8 | CC(C)C[C@H](NC(=O)[C@@H](CCCNC(=N)N)NC(=O)[C@@H]1CCCCN1C(=O)[C@H](CCCNC(=N)N)NC(=O)[C@H](CCC(N)=O)NC(=O)[C@@H](CCCNC(=N)N)NC(=O)C(C)(C)C(=O)NCCc1cnc[nH]1)C(=O)NC(C)(C)C(=O)N[C@@H](Cc1c[nH]cn1)C(=O)N[C@@H](CC1CCNCC1)C(=O)NCC(=O)N1[C@H](C(=O)N[C@@H](Cc2ccc(Br)cc2)C(=O)N2CCC[C@H]2C(=O)N[C@H](Cc2ccc(-c3ccccc3)cc2)C(=O)O)C[C@@H]2CCCC[C@@H]21 [Example 30] ({Malonyl(2,2-Me2,histaminyl)}-[dR]QR[Pip][dR]L[Aib]H[Ala(piperidin-4-yl)]G[Oic][Phe(4-Br)]P[dBip]-OH) | 106% | 5.01 nM | > 10000 nM | – | –
9 | CC(C)C[C@H](NC(=O)[C@@H](CCCNC(=N)N)NC(=O)[C@@H]1CCCCN1C(=O)[C@H](CCCCNC(=N)N)NC(=O)[C@H](CCC(N)=O)NC(=O)[C@@H](CCCNC(=N)N)NC(=O)C(C)(C)C(=O)NCCc1cnc[nH]1)C(=O)NC(C)(C)C(=O)N[C@@H](Cc1cccnc1)C(=O)N[C@@H](CC1CCNCC1)C(=O)NCC(=O)N1[C@H](C(=O)N[C@@H](Cc2ccc(Br)cc2)C(=O)N2CCC[C@H]2C(=O)N[C@H](Cc2ccc(-c3ccccc3)cc2)C(=O)O)C[C@@H]2CCCC[C@@H]21 [Example 31] ({Malonyl(2,2-Me2,histaminyl)}-[dR]Q[hArg][Pip][dR]L[Aib][3Pal][Ala(piperidin-4-yl)]G[Oic][Phe(4-Br)]P[dBip]-OH) | – | – | > 10000 nM | 75.4% | 10 nM
